Measurements from patent US20230398098A1, “TOPICAL DETOMIDINE FORMULATIONS” (Clexio Biosciences Ltd., priority 2020, published 2023).
Where a name gives a salt, the structure may show the parent alone.

Key:
Format in all cases: physicochemical
[1] = Hydration study of solid forms by DVS analysis
Procedure: Melting points (m.p.) of the intermediate detomidine free base and hydrochloride of Sample 5 measured in open capillary corresponded with the published literature and the DSC data and are presented in Table 4. In order to evaluate effect of humidity on different forms of detomidine, a hydration study was performed. Samples of detomidine free base and hydrochloride salt were subjected to DVS analysis. These observations are in accordance with the DVS results shown in FIGS. 1 and 2, for detomidine free base and detomidine HCl, respectively.
During the dehydration cycle, the monohydrate began to lose water at RH˜10% and converted into the anhydrate at RH=0%.

[2] = Aldehyde impurity assessment: aqueous stock solutions exposed to air, HPLC of RRT = 0.38; conditions: 7.4 wt % detomidine HCl in water; for RRT = 0.38 content at 2 years: exposed to air at room temperature; for Initial RRT = 0.38 content: time zero
Procedure: Therefore, for further identification of the elusive impurity, new HPLC protocols for assaying detomidine HCl were developed. One protocol (“HPLC Protocol A”) comprised using a SunFire C8 column, 100Å, 3.5 μm, 4.6×150 mm column with an initial mobile phase of 70% Ammonium Phosphate buffer solution, pH 7.9 and 30% Acetonitrile, at a flow rate of 1.0 mL/min and UV detection at 220 nm. To remove late eluting peaks, the flush gradient shown in Table 5 was applied after each run. This HPLC protocol allowed for a resolution factor of 3.9 between detomidine and the unidentified impurity. The quantitation level (QL) for impurities and degradation products is 0.025%. The detection level (DL) for impurities and degradation products is 0.01%.
Stock solutions of 7.4 wt % detomidine HCl in water were prepared using material from Table 6, Batch #iv and v and the samples were then kept exposed to air at room temperature for 2 years.

[3] = Oxidation with potassium permanganate in aqueous solution, HPLC of RRT = 0.38; conditions: 3 hours after solution preparation
Procedure: A further sample of material from Table 6, Batch #v was reacted with potassium permanganate in aqueous solution. RRT=0.38 was found in the reaction product at 0.14% at 3 hours after solution preparation.

[4] = Solubility of solid forms in water (observation)

## Cc1cccc(Cc2c[nH]cn2)c1C [anhydrous detomidine HCl]
[1]; DVS
  RH at which the anhydrate absorbs water / transforms completely into the monohydrate: 30-50%
  RH at which the anhydrate did not absorb water: < 30%

## Cc1cccc(Cc2c[nH]cn2)c1C.Cl [Sample 2]
[1]; hydration of the anhydrous form
  water level absorbed, cKF: 7.7%

## Cc1cccc(Cc2cnc[nH]2)c1C.Cl.O [Batch v]
[2]; listed as v
  RRT = 0.38 content at 2 years: 0.02%
  Initial RRT = 0.38 content: not detectable
[3]
  RRT=0.38 in the reaction product: 0.14%

## Cc1cccc(Cc2c[nH]cn2)c1C [detomidine HCl monohydrate]
[1]; dehydration cycle, DVS
  RH at which the monohydrate began to lose water: ~10%
  RH at which the monohydrate converted into the anhydrate: 0%

## Cc1cccc(Cc2c[nH]cn2)c1C [detomidine free base, 4-[(2,3-dimethylphenyl)methyl]-1H-Imidazole]
[1]; DVS, 24.4° C. (FIG. 1)
  hygroscopicity: non-hygroscopic
[1]; at relative humidity (RH)>50%
  water absorbed: more than 1%
[4]
  solubility in water: insoluble in water

## Cc1cccc(Cc2c[nH]cn2)c1C [detomidine hydrochloride]
[4]
  solubility in water: soluble

## Cc1cccc(Cc2cnc[nH]2)c1C.Cl.O [Batch iv]
[2]; listed as iv
  RRT = 0.38 content at 2 years: 1%
  Initial RRT = 0.38 content: 0.2%
